Experiments:
Raji cells = assay: Cytotoxicity study, MTS cell proliferation assay, 5 days; assay type: cell-based, human; details: concentrations up to 300 nM, FIG. 5C
Protocol: (§1) The human Burkitt lymphoma cell line Raji was obtained from the American Type Tissue Culture Collection and cultured in RPMI 1640 medium (ATCC) supplemented with 10% fetal bovine serum (ATCC,) at 37° C., 5% CO2. The COMPOUND I-resistant Raji (Raji/COMPOUND IR) cell line was generated by exposure to progressively higher concentrations of COMPOUND I over a period of 6 months. CAOV3 cells were obtained from ATCC and cultured in complete DMEM supplemented with 10% fetal bovine serum. MCF7 vector controlled and BRCA1 shRNA subclones were obtained from Dr. Simon Powell (Memorial Sloan-Kettering Cancer Center) and cultured in EMBM with 10% fetal bovine serum. MCF10A and hTERT-IMEC clones were obtained from Dr. Ben Ho Park (Johns Hopkins University). HCT116 BRCA2^+/+ cells and BRCA2^−/− cells were obtained from Dr. Samuel Aparicio (British Columbia Cancer Research Centre). PEO1 and PEO4 cells were obtained from Dr. Sharon Cantor (University of Massachusetts) and these cell lines were cultured under the same conditions as previously published. Sakai et al., Functional restoration of BRCA2 protein by secondary BRCA2 mutations in BRCA2-mutated ovarian carcinoma, Cancer Res. 2009; 69 (16):6381-6; Konishi et al., Mutation of a single allele of the cancer susceptibility gene BRCA1 leads to genomic instability in human breast epithelial cells, Proc. Natl. Acad. Sci. 2011; 108 (43):17773-8; Xu et al., CX-5461 is a DNA G-quadruplex stabilizer with selective lethality in BRCA1/2 deficient tumours, Nature Communications 2017; 8:14432, all of which are hereby incorporated by reference.
(§2) Cells were plated and treated with the indicated drugs in 96-well plates for 5 days. Cell viability was measured using CellTiter 96 AQueous one solution (MTS) cell proliferation assay purchased from Promega, and IC50 values were calculated using GraphPad Prism 6 Software.

Raji/COMPOUND IR cells = assay: as above; assay type: cell-based, human
Protocol: as §1, §2

[1] = test system: G4 sequences (telomere, MYC, KIT, rRNA oligos); assay: Modified FRET assay, melting of G-quadruplex oligos; assay type: binding, human; details: FIG. 13C; COMPOUND I data at 6-hour incubation
Protocol: FRET assay and data analysis was performed as described previously and modified by using dual labeled (5′ FAM-3′ BHQ1) single-stranded oligos. Melting temperature of each oligo was assessed in the presence of vehicle DMSO or escalating concentrations of COMPOUND I, Fe(COMPOUND I)3, CX-5461, or TMPyP4 using a Roche LightCycler 96 [at 37° C. for 300 seconds followed by temperature increased in […] intervals up to 91° C. (25 steps) with 300-second total incubation time at each temperature]. Drug and oligo reaction mixes were analyzed immediately or incubated for 6 hours at room temperature and then analyzed. […] COMPOUND I data are presented for 6-hour time point.
The ability of COMPOUND I (parental monomeric form of the drug) and Fe(COMPOUND I)3 to bind and stabilize G4 sequences using a modified FRET assay was evaluated (FIGS. 21 and 22). TMPyP4, a well-known G4 ligand, and CX-5461, a clinical stage molecule recently reported to have G4-binding properties, were utilized as controls to assess the specificity of COMPOUND I and Fe(COMPOUND I)3 for G4-stabilizing activity.

[2] = test system: MCF10A BRCA1-het #1 and #2 clones vs control; assay: Sensitivity of BRCA1-proficient and -deficient isogenic clones; assay type: cell-based, human; details: FIG. 3A
Protocol: as §2
(§3) The finding that COMPOUND I produced DNA damage led to the investigation of whether cells deficient in homologous recombination were hypersensitive to this drug. The hypothesis that there would be synthetic lethality between COMPOUND I and BRCA1 deficiency using isogenic pairs of BRCA1-proficient and -deficient human cell lines was tested. […] The conclusion that BRCA1-deficient cells are hypersensitive to COMPOUND I was further supported by the results obtained in MCF7 E7 cells in which BRCA1 expression is stably knocked down by the expression of an shRNAi. […] Whether BRCA2-deficient cells are more sensitive to COMPOUND I was tested using the BRCA2-proficient and BRCA2-deficient ovarian cancer cell lines, PEO4 and PEO1, respectively. PEO1 is BRCA2-deficient and sensitive to cisplatin and a poly(ADP-ribose) polymerase inhibitor AG14361. PEO4 was derived from ascites at the time of relapse with cisplatin resistance and contains a secondary mutation that restores BRCA2 function. […] Thus, loss of either BRCA1 or BRCA2 function renders malignant cells hypersensitive to COMPOUND I.

[3] = test system: hTERT-IMEC BRCA1 knock-in clone; assay: as above; assay type: cell-based, human; details: FIG. 3B
Protocol: as §2, §3

[4] = test system: PEO4 and PEO1 ovarian cancer cell lines; assay: Sensitivity of BRCA2-proficient and -deficient cells; assay type: cell-based; details: FIG. 3D
Protocol: as §2, §3

For `COc1ccc2c3c([nH]c2c1)[C@H](CC(C)C)N1C(=O)[C@H](CCC(=O)OC(C)(C)C)NC(=O)[C@@H]1C3` [Ko143, reference compound], the “toxicity of Ko143 alone” value (Raji cells) was “not toxic” and the “toxicity of Ko143 alone” value (Raji/COMPOUND IR cells; concentrations up to 300 nM, FIG. 5C) was “not toxic”.
`COc1cc([C@@H]2c3cc4c(cc3[C@@H](O[C@@H]3O[C@@H]5CO[C@@H](C)O[C@H]5[C@H](O)[C@H]3O)[C@H]3COC(=O)[C@H]23)OCO4)cc(OC)c1O` [etoposide, reference compound] was tested, and the “sensitivity of Raji/COMPOUND IR cells relative to Raji” value (Raji/COMPOUND IR cells) was “hypersensitive”.
With `N.N.O=C([O-])C1(C(=O)[O-])CCC1.[Pt+2]` [carboplatin, reference compound] the “sensitivity of Raji/COMPOUND IR cells relative to Raji” value (Raji/COMPOUND IR cells) was “significantly cross-resistant”.
With `C[n+]1ccc(-c2c3nc(c(-c4cc[n+](C)cc4)c4ccc([nH]4)c(-c4cc[n+](C)cc4)c4ccc([nH]4)c(-c4cc[n+](C)cc4)c4nc2C=C4)C=C3)cc1` [TMPyP4] the “stabilization of G4 sequences (ΔT1/2)” value [1] was “stabilized all G4 motifs except the G4 of the KIT gene promoter”.
`Cc1cnc(CNC(=O)c2c(=O)c3ccc(N4CCCN(C)CC4)nc3n3c2sc2ccccc23)cn1` [CX-5461] was tested, and the “stabilization of G4 sequences (ΔT1/2)” value [1] was “potent stabilizer of all G4 sequences tested”.
`CC[C@@]1(O)C(=O)OCc2c1cc1n(c2=O)Cc2cc3c(CN(C)C)c(O)ccc3nc2-1` [topotecan, reference compound] was tested, and the “cross-resistance of Raji/COMPOUND IR cells” value (Raji/COMPOUND IR cells; vs Raji) was 3 fold and the “effect of Ko143 on topotecan resistance” value (Raji/COMPOUND IR cells; with Ko143, FIG. 5E) was “reversed this resistance completely”.
For `O=C(c1cc(Cc2n[nH]c(=O)c3ccccc23)ccc1F)N1CCN(C(=O)C2CC2)CC1` [olaparib, reference compound], the “sensitivity of BRCA1-het knockin clones vs control” value [2] was “more sensitive to olaparib”, the “sensitivity of BRCA1 2-bp knock-in clone” value [3] was “hypersensitive to both olaparib and COMPOUND I” and the “effect of restoration of BRCA2 function (PEO4 vs PEO1)” value [4] was “increased resistance”.

Reference: patent US11149047B2, “Aryl imidazoles for treatment of cancer” (Aptose Biosciences Inc., priority 2017, dated 2021)
